Here are results for 27 compounds from patent publication US11040031B2, “Pyrazole derivatives as MALT1 inhibitors” (Janssen Pharmaceutica NV, priority 2018, dated 2021).

Molecules are shown by their SMILES.

Broadly, the IC50 is the midpoint of a concentration-inhibition curve.
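Note: fluorogenic LRSR-AMC substrate cleavage by MALT1, 50 min compound preincubation then 4 h reaction at RT, 11-point dilution from 30 µM, scaled between enzyme-free and untreated enzyme controls.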

For the experiment, the target named is T1, full-length MALT1 protein (Strep-MALT1(1-824)-His) (Homo sapiens, UniProt Q9UDY8).
T1 sequence (Q9UDY8 1-824): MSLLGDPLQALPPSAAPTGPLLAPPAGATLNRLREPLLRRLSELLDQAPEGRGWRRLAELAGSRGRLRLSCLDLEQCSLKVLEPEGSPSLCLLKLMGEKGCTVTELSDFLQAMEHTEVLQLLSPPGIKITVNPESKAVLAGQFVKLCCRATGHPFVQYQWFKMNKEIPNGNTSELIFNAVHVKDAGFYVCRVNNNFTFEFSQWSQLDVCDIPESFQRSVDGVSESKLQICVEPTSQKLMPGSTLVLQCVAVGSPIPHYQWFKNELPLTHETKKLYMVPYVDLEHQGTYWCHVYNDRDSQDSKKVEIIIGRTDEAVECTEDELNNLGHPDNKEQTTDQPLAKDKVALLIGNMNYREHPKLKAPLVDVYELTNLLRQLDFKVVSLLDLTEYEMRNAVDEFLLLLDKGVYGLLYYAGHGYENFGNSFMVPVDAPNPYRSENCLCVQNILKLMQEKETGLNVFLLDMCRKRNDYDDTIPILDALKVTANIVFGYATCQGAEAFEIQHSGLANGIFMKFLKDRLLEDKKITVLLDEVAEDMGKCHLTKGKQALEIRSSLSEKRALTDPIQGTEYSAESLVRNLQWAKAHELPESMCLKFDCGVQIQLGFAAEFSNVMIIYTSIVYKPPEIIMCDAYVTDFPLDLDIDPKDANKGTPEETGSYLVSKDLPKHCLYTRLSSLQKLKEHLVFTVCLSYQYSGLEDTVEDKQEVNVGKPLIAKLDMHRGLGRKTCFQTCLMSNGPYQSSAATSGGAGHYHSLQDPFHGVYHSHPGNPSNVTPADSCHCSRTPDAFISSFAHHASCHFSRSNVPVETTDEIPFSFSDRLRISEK
In words: biochemical.
In turn, `N#Cc1cnccc1-n1ncc(C(=O)Nc2cnc(-n3nccn3)c(C#N)c2)c1C(F)(F)F` [Cpd 46, N-(5-cyano-6-(2H-1,2,3-triazol-2-yl)pyridin-3-yl)-1-(3-cyanopyridin-4-yl)-5-(trifluoromethyl)-1H-pyrazole-4-carboxamide] gave an IC50 of 479 nM. This lies in the sub-micromolar range. To `Cc1ccnc(-n2ncc(C(=O)Nc3cnc(-n4nccn4)c(C#N)c3)c2C(F)(F)F)c1Cl` [Cpd 47, 1-(3-chloro-4-methylpyridin-2-yl)-N-(5-cyano-6-(2H-1,2,3-triazol-2-yl)pyridin-3-yl)-5-(trifluoromethyl)-1H-pyrazole-4-carboxamide] belongs 537 nM; to `COc1ccnc(-n2ncc(C(=O)Nc3cnc(-n4nccn4)c(Cl)c3)c2C(F)(F)F)c1Cl` [Cpd 65, 1-(3-chloro-4-methoxypyridin-2-yl)-N-(5-chloro-6-(2H-1,2,3-triazol-2-yl)pyridin-3-yl)-5-(trifluoromethyl)-1H-pyrazole-4-carboxamide], 5750 nM; to `COc1ccnc(-n2ncc(C(=O)Nc3cnc(-n4nccn4)c(C#N)c3)c2C(F)(F)F)c1Cl` [Cpd 66, 1-(3-chloro-4-methoxypyridin-2-yl)-N-(5-cyano-6-(2H-1,2,3-triazol-2-yl)pyridin-3-yl)-5-(trifluoromethyl)-1H-pyrazole-4-carboxamide], 3980 nM. `O=C(Nc1cnc(-n2nccn2)c(Cl)c1)c1cnn(-c2c(Cl)cncc2Cl)c1C(F)(F)F` [Cpd 67, N-(5-chloro-6-(2H-1,2,3-triazol-2-yl)pyridin-3-yl)-1-(3,5-dichloropyridin-4-yl)-5-(trifluoromethyl)-1H-pyrazole-4-carboxamide] displayed a half-inhibitory concentration (IC50) of 525 nM. The value for `Cc1c(F)ccc(-n2ncc(C(=O)Nc3cnc(-n4nccn4)c(Cl)c3)c2C(F)(F)F)c1Cl` [Cpd 71, 1-(2-chloro-4-fluoro-3-methylphenyl)-N-(5-chloro-6-(2H-1,2,3-triazol-2-yl)pyridin-3-yl)-5-(trifluoromethyl)-1H-pyrazole-4-carboxamide] was 832 nM; that for `Cc1c(F)ccc(-n2ncc(C(=O)Nc3cnc(-n4nccn4)c(C#N)c3)c2C(F)(F)F)c1Cl` [Cpd 72, 1-(2-chloro-4-fluoro-3-methylphenyl)-N-(5-cyano-6-(2H-1,2,3-triazol-2-yl)pyridin-3-yl)-5-(trifluoromethyl)-1H-pyrazole-4-carboxamide] was 603 nM; that for `CS(=O)(=O)c1cccc(-n2ncc(C(=O)Nc3cnc(-n4nccn4)c(Cl)c3)c2C(F)(F)F)c1` [Cpd 74, N-(5-chloro-6-(2H-1,2,3-triazol-2-yl)pyridin-3-yl)-1-(3-(methylsulfonyl)phenyl)-5-(trifluoromethyl)-1H-pyrazole-4-carboxamide] was 2880 nM. To `Cc1cc(S(C)(=O)=O)ccc1-n1ncc(C(=O)Nc2cnc(-n3nccn3)c(Cl)c2)c1C(F)(F)F` [Cpd 75, N-(5-chloro-6-(2H-1,2,3-triazol-2-yl)pyridin-3-yl)-1-(2-methyl-4-(methylsulfonyl)phenyl)-5-(trifluoromethyl)-1H-pyrazole-4-carboxamide] belongs 1070 nM. The value for `CC(C)c1ccccc1-n1ncc(C(=O)Nc2cnc(-n3nccn3)c(Cl)c2)c1C(F)(F)F` [Cpd 76, N-(5-chloro-6-(2H-1,2,3-triazol-2-yl)pyridin-3-yl)-1-(2-isopropylphenyl)-5-(trifluoromethyl)-1H-pyrazole-4-carboxamide] was 676 nM; that for `Cc1c(F)ccc(-n2ncc(C(=O)Nc3cnc(-n4nccn4)c(Cl)c3)c2C(F)(F)F)c1C` [Cpd 77, N-(5-chloro-6-(2H-1,2,3-triazol-2-yl)pyridin-3-yl)-1-(4-fluoro-2,3-dimethylphenyl)-5-(trifluoromethyl)-1H-pyrazole-4-carboxamide] was 891 nM; that for `O=C(Nc1cnc(-n2nccn2)c(Cl)c1)c1cnn(-c2ccc(F)c(F)c2)c1C(F)(F)F` [Cpd 78, N-(5-chloro-6-(2H-1,2,3-triazol-2-yl)pyridin-3-yl)-1-(3,4-difluorophenyl)-5-(trifluoromethyl)-1H-pyrazole-4-carboxamide] was 646 nM. Compound `O=C(Nc1cnc(-n2nccn2)c(Cl)c1)c1cnn(-c2cc(F)ccc2Cl)c1C(F)(F)F` [Cpd 79, 1-(2-chloro-5-fluorophenyl)-N-(5-chloro-6-(2H-1,2,3-triazol-2-yl)pyridin-3-yl)-5-(trifluoromethyl)-1H-pyrazole-4-carboxamide] yielded a 50% inhibitory concentration (IC50) of 380 nM. To `N#Cc1cc(NC(=O)c2cnn(-c3cc(F)ccc3Cl)c2C(F)(F)F)cnc1-n1nccn1` [Cpd 80, 1-(2-chloro-5-fluorophenyl)-N-(5-cyano-6-(2H-1,2,3-triazol-2-yl)pyridin-3-yl)-5-(trifluoromethyl)-1H-pyrazole-4-carboxamide] belongs 209 nM; to `N#Cc1cc(-n2ncc(C(=O)Nc3cnc(-n4nccn4)c(Cl)c3)c2C(F)(F)F)ccc1F` [Cpd 85, N-(5-chloro-6-(2H-1,2,3-triazol-2-yl)pyridin-3-yl)-1-(3-cyano-4-fluorophenyl)-5-(trifluoromethyl)-1H-pyrazole-4-carboxamide], 2630 nM. `N#Cc1cc(-n2ncc(C(=O)Nc3cnc(-n4nccn4)c(C#N)c3)c2C(F)(F)F)ccc1F` [Cpd 86, 1-(3-cyano-4-fluorophenyl)-N-(5-cyano-6-(2H-1,2,3-triazol-2-yl)pyridin-3-yl)-5-(trifluoromethyl)-1H-pyrazole-4-carboxamide] yielded an IC50 of 1550 nM. This IC50 lies about 1.7-fold lower than the previous one. To `Cc1cc(F)ncc1-n1ncc(C(=O)Nc2cnc(-n3nccn3)c(Cl)c2)c1C(F)(F)F` [Cpd 87, N-(5-chloro-6-(2H-1,2,3-triazol-2-yl)pyridin-3-yl)-1-(6-fluoro-4-methylpyridin-3-yl)-5-(trifluoromethyl)-1H-pyrazole-4-carboxamide] belongs 724 nM; to `Cc1ncccc1-n1ncc(C(=O)Nc2cnc(-n3nccn3)c(C#N)c2)c1C(F)(F)F` [Cpd 88, N-(5-cyano-6-(2H-1,2,3-triazol-2-yl)pyridin-3-yl)-1-(2-methylpyridin-3-yl)-5-(trifluoromethyl)-1H-pyrazole-4-carboxamide], 794 nM; to `O=C(Nc1cnc(-n2nccn2)c(Cl)c1)c1cnn(-c2ccc(F)c(F)c2F)c1C(F)(F)F` [Cpd 89, N-(5-chloro-6-(2H-1,2,3-triazol-2-yl)pyridin-3-yl)-5-(trifluoromethyl)-1-(2,3,4-trifluorophenyl)-1H-pyrazole-4-carboxamide], 646 nM. To `O=C(Nc1cnc(-n2nccn2)c(Cl)c1)c1cnn(-c2c(F)cccc2Cl)c1C(F)(F)F` [Cpd 90, N-(5-chloro-6-(2H-1,2,3-triazol-2-yl)pyridin-3-yl)-1-(2-chloro-6-fluorophenyl)-5-(trifluoromethyl)-1H-pyrazole-4-carboxamide] belongs 575 nM.

Compound `Cc1ccncc1-n1ncc(C(=O)Nc2cnc(-n3nccn3)c(C#N)c2)c1C(F)(F)F` [Cpd 91, N-(5-cyano-6-(2H-1,2,3-triazol-2-yl)pyridin-3-yl)-1-(4-methylpyridin-3-yl)-5-(trifluoromethyl)-1H-pyrazole-4-carboxamide] gave an IC50 of 513 nM. `Cc1cccc(F)c1-n1ncc(C(=O)Nc2cnc(-n3nccn3)c(Cl)c2)c1C(F)(F)F` [Cpd 92, N-(5-chloro-6-(2H-1,2,3-triazol-2-yl)pyridin-3-yl)-1-(2-fluoro-6-methylphenyl)-5-(trifluoromethyl)-1H-pyrazole-4-carboxamide] had a 50% inhibitory concentration (IC50) of 501 nM. The value for `O=C(Nc1cnc(-n2nccn2)c(Cl)c1)c1cnn(-c2c(Cl)cc(F)cc2Cl)c1C(F)(F)F` [Cpd 93, N-(5-chloro-6-(2H-1,2,3-triazol-2-yl)pyridin-3-yl)-1-(2,6-dichloro-4-fluorophenyl)-5-(trifluoromethyl)-1H-pyrazole-4-carboxamide] was 457 nM; that for `O=C(Nc1cnc(-n2nccn2)c(Cl)c1)c1cnn(-c2c(F)cc(F)cc2Cl)c1C(F)(F)F` [Cpd 94, 1-(2-chloro-4,6-difluorophenyl)-N-(5-chloro-6-(2H-1,2,3-triazol-2-yl)pyridin-3-yl)-5-(trifluoromethyl)-1H-pyrazole-4-carboxamide] was 447 nM.

On to `Cc1nc(Cl)ccc1-n1ncc(C(=O)Nc2cnc(-n3nccn3)c(C#N)c2)c1C(F)(F)F` [Cpd 95, 1-(6-chloro-2-methylpyridin-3-yl)-N-(5-cyano-6-(2H-1,2,3-triazol-2-yl)pyridin-3-yl)-5-(trifluoromethyl)-1H-pyrazole-4-carboxamide], for which the IC50 came to 316 nM. In turn, `Cc1ccc(F)cc1-n1ncc(C(=O)Nc2cnc(-n3nccn3)c(Cl)c2)c1C(F)(F)F` [Cpd 96, N-(5-chloro-6-(2H-1,2,3-triazol-2-yl)pyridin-3-yl)-1-(5-fluoro-2-methylphenyl)-5-(trifluoromethyl)-1H-pyrazole-4-carboxamide] showed an IC50 of 316 nM. The value for `N#Cc1cc(NC(=O)c2cnn(-c3ccc(F)c(F)c3)c2C(F)(F)F)cnc1-n1nccn1` [Cpd 104, N-(5-cyano-6-(2H-1,2,3-triazol-2-yl)pyridin-3-yl)-1-(3,4-difluorophenyl)-5-(trifluoromethyl)-1H-pyrazole-4-carboxamide] was 245 nM.
